Assay results published in ChEMBL document CHEMBL4811297, “Low cytotoxic quinoline-4-carboxylic acids derived from vanillin precursors as potential human dihydroorotate dehydrogenase inhibitors” (Bioorg Med Chem Lett, 2021).
pIC50: −log10 of the molar value.

Tests used:
[1] = molecular target: Dihydroorotate dehydrogenase (quinone), mitochondrial (Homo sapiens, UniProt Q02127); assay: Inhibition of human DHODH
HaCaT = assay: Antiproliferative activity against human HaCaT cells assessed as inhibition of cell proliferation; assay type: cell-based
[2] = Lipophilicity, log D of compound at pH 7.4 in octanol/phosphate buffer measured by shake flask method; assay type: physicochemical

Dihydroorotate dehydrogenase (quinone), mitochondrial, sequence (Q02127 whole entry): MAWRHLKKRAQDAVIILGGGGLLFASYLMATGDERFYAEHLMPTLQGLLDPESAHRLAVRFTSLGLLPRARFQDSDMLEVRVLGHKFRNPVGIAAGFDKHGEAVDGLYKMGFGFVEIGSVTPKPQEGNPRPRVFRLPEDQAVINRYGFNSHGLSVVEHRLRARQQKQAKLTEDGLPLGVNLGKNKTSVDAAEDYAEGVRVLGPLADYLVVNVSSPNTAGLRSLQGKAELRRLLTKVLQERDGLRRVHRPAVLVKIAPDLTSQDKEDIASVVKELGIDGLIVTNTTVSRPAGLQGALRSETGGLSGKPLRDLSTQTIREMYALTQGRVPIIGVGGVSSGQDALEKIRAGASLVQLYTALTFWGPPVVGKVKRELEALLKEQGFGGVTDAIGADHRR

Row | pIC50 [1] | logD [2] | Structure (SMILES) | pIC50 (HaCaT)
1 | 6.00 | -0.3 | COc1cc(-c2cc(C(=O)O)c3ccccc3n2)ccc1OCC(=O)NCc1ccco1 | < 3.52
2 | 5.72 | 1.5 | COc1cc(-c2cc(C(=O)O)c3ccccc3n2)ccc1OCC(=O)Nc1cccc(C)c1 | 3.65
3 | 6.30 | 2.3 | COc1cc(-c2cc(C(=O)O)c3ccccc3n2)ccc1OCC(=O)Nc1cccc(Cl)c1 | 3.72
4 | 5.89 | 1.6 | COc1cc(-c2cc(C(=O)O)c3ccccc3n2)ccc1OCC(=O)Nc1ccccc1Cl | 3.68
5 | 6.15 | -0.8 | COc1cc(-c2cc(C(=O)O)c3ccccc3n2)ccc1OCC(=O)NCc1cccnc1 | < 3.52
6 | 6.30 | 0.9 | COc1cc(-c2cc(C(=O)O)c3ccccc3n2)ccc1OCC(=O)Nc1ccccc1F | 3.79
7 | 5.68 | 1.6 | COc1cc(-c2cc(C(=O)O)c3ccccc3n2)ccc1OCC(=O)Nc1cccc(F)c1 | 3.83
8 | 5.41 | 0.7 | COc1cc(-c2cc(C(=O)O)c3ccccc3n2)ccc1OCC(=O)Nc1ccccc1 | < 3.52
9 | 5.51 | 0 | COc1cc(-c2cc(C(=O)O)c3ccccc3n2)ccc1OCC(=O)NCc1cccs1 | < 3.52
10 | 5.23 | 0.8 | COc1cc(-c2cc(C(=O)O)c3ccccc3n2)ccc1OCC(=O)Nc1ccccc1C | 3.64
11 | 5.43 | 0.4 | COc1cc(-c2cc(C(=O)O)c3ccccc3n2)ccc1OCC(=O)NCc1ccccc1 | < 3.52

More lines, now with the values behind:

Row | Structure (SMILES) | pIC50 [1] | logD [2] | pIC50 (HaCaT)
12 | COc1cc(-c2cc(C(=O)O)c3ccccc3n2)ccc1OCC(=O)Nc1ccc(C)cc1 | 5.42 | 1.2 | < 3.52
13 | CCCCCCNC(=O)COc1ccc(-c2cc(C(=O)O)c3ccccc3n2)cc1OC | 5.57 | 1 | < 3.52
14 | COc1cc(-c2cc(C(=O)O)c3ccccc3n2)ccc1OCC(=O)Nc1ccc(Cl)cc1 | 6.30 | 1.5 | < 3.52
15 | COc1cc(-c2cc(C(=O)O)c3ccccc3n2)ccc1OCC(=O)Nc1ccc(F)cc1 | 5.80 | 1.1 | 3.54
16 | COc1cc(-c2cc(C(=O)O)c3ccccc3n2)ccc1OCC(=O)Nc1cccc(C(F)(F)F)c1 | 6.30 | 1.3 | 3.80
17 | COc1cc(-c2cc(C(=O)O)c3ccccc3n2)ccc1OCC(=O)NC1CCCCC1 | 5.77 | 0.8 | < 3.52
18 | COc1cc(-c2cc(C(=O)O)c3ccccc3n2)ccc1OCC(=O)NC12CC3CC(CC(C3)C1)C2 | 5.77 | 1 | 3.74
19 | COc1cc(-c2cc(C(=O)O)c3ccccc3n2)ccc1OCC(=O)Nc1ccc(C(F)(F)F)cc1 | 5.62 | 1.6 | 3.82
20 | COc1cc(-c2cc(C(=O)O)c3ccccc3n2)ccc1OCC(=O)Nc1ccccc1C(F)(F)F | 6.52 | 1.3 | 3.99
